Data as given in patent US8859565B2, “Compound for inhibiting type 5 phosphodiesterase and preparation method thereof” (priority 2010, dated 2014).
Counter-ions that a name gives are not always drawn.

Legend:
[1] = test system: rats having hypertension induced by monocrotaline; conditions: cited from earlier work
PDE5 [2] = target: T1, PDE5 (Homo sapiens, UniProt O76074); test: Effect to PDE5 on cAMP (cAMP enzyme immunoassay, EIA); assay type: biochemical; conditions: 1600 fmol cAMP, PDE5 3u, 30° C., 20 min; 10^−4 to 10^−12 mol·L^−1; p>0.05, S curve cannot be fitted
PDE5 [3] = target: T1, PDE5; test: Inhibiting effect to PDE5 degrading cGMP (cGMP enzyme immunoassay, EIA); assay type: biochemical; conditions: 3200 fmol cGMP, PDE5 3u, 30° C., 20 min; PROBIT regression
pulmonary hypertension = conditions: animal model experiments; cited from earlier work

## COc1ccc(CNc2nnc(N3CCC(O)CC3)c3ccc(C#N)cc23)cc1Cl.Cl [E-4010]
[1]
  Survival rate: can increase the survival rate

## CCCc1nn(C)c2c(=O)[nH]c(-c3cc(S(=O)(=O)N4C[C@@H](C)N(C)[C@@H](C)C4)ccc3OCC)nc12 [ZTH, 5-[2-ethoxyphenyl-5-(3,4,5-trimethylpiperazinyl)-sulfonyl]-1-methyl-3-propyl-1,6-dihydro-7H-pyrazolo[4,3-d]pyrimidine-7-ketone citrate]
PDE5 [2]
  Effect to PDE5 on cAMP (OD value vs negative control): no substantial difference in OD value
PDE5 [3]
  IC50: 2.12 nM

## CCCOc1ccccc1-c1nc2nn[nH]c2c(=O)[nH]1 [zaprinast]
Pulmonary hypertension
  Effect on pulmonary hypertension: relatively strong effects to lower pulmonary hypertension
